How the values were obtained:
[1] = molecular target: PIKfyve (Homo sapiens (Human), UniProt Q9Y2I7); assay: PIKfyve EEA1 Assay (endosomal vesicle enlargement, high content imaging in U2OS cells); format: cell-based; conditions: 3 hours of treatment, activity relative to maximal APY0201 activity
Procedure: PIKfyve EEA1 Assay. Genetic or pharmacological disruption of PIKfyve activity results in enlargement of endosomal vesicles. This enlargement was utilized as a surrogate readout of PIKFyve inhibition for routine triage of PIKfyve inhibitors. U2OS cells grown in 96-well assay plates were treated with compound diluted in DMEM media containing 10% fetal bovine serum. After 3 hours of treatment, cells were fixed with paraformaldehyde, permeabilized with 0.2% Triton-X in phosphate buffered saline and stained against EEA1. During the secondary antibody staining, cells were also stained with CellMask™ Deep Red and Hoechst to detect cytoplasms and nuclei respectively. Endosomal structures were visualized using a high content imager at 40× magnification. Images were analyzed using a linear classifier algorithm integrating EEA1 spot size, intensity and texture trained on images of cells treated with the potent reference compound APY0201. Compound activity was calculated by subtracting the DMSO signal and calculating percentage activity relative to maximal APY0201 activity. IC50 values were then calculated from concentration versus percent inhibition data by logistic regression.

[2] = molecular target: full-length human PIKFYVE (Homo sapiens (Human), UniProt Q9Y2I7, L932S/Q1183K/Q995L/S1033A/S696N/T998S); assay: PIKfyve Biochemical Assay (ADP-Glo Kinase assay, GST-PIKFYVE); conditions: ADP-Glo, 1 hour at room temperature, 10 μM to 3 nM in duplicate; read-out: PIKfyve Biochemistry IC50 (μM)*
Procedure: PIKfyve Biochemical Assay. The biochemical PIKFyve inhibition assays were run by Cama Biosciences according to proprietary methodology based on the Promega ADP-Glo™ Kinase assay. […] GST-PIKFYVE was purified by using glutathione sepharose chromatography and used in an ADP-Glo™ Kinase assay (Promega). Reactions were set up by adding the test compound solution, substrate solution, ATP solution and kinase solution, each at 4× final concentrations. Reactions were prepared with assay buffer (50 mM MOPS, 1 mM DTT, pH7.2), mixed, and incubated in black 384 well polystyrene plates for 1 hour at room temperature. ADP-Glo™ reagent was then added for 40 minutes, followed by kinase detection reagent for an additional 40 minutes. The kinase activity was evaluated by detecting relative light units on a luminescence plate reader. Samples were run in duplicate from 10 μM to 3 nM. […] IC50 values were calculated from concentration versus percent inhibition curves by fitting to a four-parameter logistic curve.
The biochemical PIKFyve inhibition assays were run by Cama Biosciences according to proprietary methodology based on the Promega ADP-Glo™ Kinase assay. […] GST-PIKFYVE was purified by using glutathione sepharose chromatography and used in an ADP-Glo™ Kinase assay (Promega).
Reactions were set up by adding the test compound solution, substrate solution, ATP solution and kinase solution, each at 4× final concentrations. Reactions were prepared with assay buffer (50 mM MOPS, 1 mM DTT, pH7.2), mixed, and incubated in black 384 well polystyrene plates for 1 hour at room temperature. ADP-Glo™ reagent was then added for 40 minutes, followed by kinase detection reagent for an additional 40 minutes. The kinase activity was evaluated by detecting relative light units on a luminescence plate reader. Samples were run in duplicate from 10 uM to 3 nM. […] IC50 values were calculated from concentration vs % inhibition curves by fitting to a four-parameter logistic curve.

Chain of PIKfyve (Q9Y2I7 whole entry): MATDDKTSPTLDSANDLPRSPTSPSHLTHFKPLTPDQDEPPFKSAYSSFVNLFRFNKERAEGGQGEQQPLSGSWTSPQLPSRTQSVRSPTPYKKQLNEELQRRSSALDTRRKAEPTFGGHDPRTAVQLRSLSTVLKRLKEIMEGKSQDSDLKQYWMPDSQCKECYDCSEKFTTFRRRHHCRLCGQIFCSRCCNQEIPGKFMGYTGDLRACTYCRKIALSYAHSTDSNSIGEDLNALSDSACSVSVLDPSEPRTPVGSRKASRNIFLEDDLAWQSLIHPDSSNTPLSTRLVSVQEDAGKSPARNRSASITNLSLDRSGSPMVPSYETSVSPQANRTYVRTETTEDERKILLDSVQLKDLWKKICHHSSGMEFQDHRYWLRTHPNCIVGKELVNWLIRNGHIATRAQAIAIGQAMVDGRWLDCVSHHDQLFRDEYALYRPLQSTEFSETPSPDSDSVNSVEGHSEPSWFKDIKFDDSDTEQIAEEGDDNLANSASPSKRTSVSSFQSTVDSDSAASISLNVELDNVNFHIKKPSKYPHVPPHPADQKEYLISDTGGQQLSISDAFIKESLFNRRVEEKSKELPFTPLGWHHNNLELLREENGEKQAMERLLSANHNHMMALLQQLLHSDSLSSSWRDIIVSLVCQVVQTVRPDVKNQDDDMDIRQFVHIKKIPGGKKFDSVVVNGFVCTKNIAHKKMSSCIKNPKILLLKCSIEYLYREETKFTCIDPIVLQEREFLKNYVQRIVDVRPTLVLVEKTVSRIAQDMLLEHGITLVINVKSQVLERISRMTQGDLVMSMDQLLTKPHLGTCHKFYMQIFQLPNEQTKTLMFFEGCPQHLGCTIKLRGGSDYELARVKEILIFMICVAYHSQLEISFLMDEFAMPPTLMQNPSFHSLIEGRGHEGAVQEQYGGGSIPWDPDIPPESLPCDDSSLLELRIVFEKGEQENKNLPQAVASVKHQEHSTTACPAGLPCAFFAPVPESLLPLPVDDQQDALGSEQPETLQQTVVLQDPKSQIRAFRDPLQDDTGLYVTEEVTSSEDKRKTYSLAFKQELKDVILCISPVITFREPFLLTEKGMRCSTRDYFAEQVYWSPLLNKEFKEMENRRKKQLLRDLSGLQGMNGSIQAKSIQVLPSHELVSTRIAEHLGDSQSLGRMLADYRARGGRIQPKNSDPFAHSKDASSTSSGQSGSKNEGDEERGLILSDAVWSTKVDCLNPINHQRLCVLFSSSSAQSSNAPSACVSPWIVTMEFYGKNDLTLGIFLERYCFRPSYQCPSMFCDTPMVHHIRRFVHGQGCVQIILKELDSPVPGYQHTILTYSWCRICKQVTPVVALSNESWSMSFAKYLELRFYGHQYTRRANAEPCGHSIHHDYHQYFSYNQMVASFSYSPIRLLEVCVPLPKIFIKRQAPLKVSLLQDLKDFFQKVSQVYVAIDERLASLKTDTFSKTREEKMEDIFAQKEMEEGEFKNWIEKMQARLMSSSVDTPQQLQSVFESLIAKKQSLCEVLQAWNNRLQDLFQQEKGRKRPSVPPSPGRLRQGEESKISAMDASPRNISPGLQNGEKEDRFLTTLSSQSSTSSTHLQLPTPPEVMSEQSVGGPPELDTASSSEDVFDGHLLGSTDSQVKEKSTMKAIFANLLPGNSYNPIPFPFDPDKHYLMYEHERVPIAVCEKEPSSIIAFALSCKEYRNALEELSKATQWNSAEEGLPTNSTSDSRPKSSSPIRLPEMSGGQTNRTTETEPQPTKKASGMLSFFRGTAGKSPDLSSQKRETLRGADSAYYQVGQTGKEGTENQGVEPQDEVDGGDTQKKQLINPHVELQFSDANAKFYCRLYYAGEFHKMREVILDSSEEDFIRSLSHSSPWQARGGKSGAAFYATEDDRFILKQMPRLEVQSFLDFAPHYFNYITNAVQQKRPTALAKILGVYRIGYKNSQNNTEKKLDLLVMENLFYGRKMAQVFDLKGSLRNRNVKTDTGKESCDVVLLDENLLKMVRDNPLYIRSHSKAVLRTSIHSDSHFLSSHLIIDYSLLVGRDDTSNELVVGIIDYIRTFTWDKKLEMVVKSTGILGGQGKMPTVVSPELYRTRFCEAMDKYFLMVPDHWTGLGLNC
Chain of full-length human PIKFYVE (Q9Y2I7 whole entry S696N/L932S/Q995L/T998S/S1033A/Q1183K): as the sequence (Q9Y2I7 whole entry) above, with S696N, L932S, Q995L, T998S, S1033A, Q1183K counted along it

Row | Compound | IC50 [1] [µM] | IC50 [2] [µM]
1 | COc1c(C(=O)Nc2ccccc2)nc(N2CCOCC2)nc1-c1ccn(-c2ccccc2)n1 [Compound 1, 5-methoxy-2-morpholino-N-phenyl-6-(1-phenyl-1H-pyrazol-3-yl)pyrimidine-4-carboxamide] | 1 to 10 | 0.01 to 0.1
2 | COc1c(Oc2cccnc2)nc(N2CCOCC2)nc1-n1cc(-c2ccccc2)cn1 [Compound 2, 4-(5-methoxy-4-(4-phenyl-1H-pyrazol-1-yl)-6-(pyridin-3-yloxy)pyrimidin-2-yl) morpholine] | 1 to 10 | 0.01 to 0.1
3 | COc1c(C(=O)NC2CC2)nc(N2CCOCC2)nc1-c1cccc(-c2ccn(C)n2)c1 [Compound 6, N-cyclopropyl-4-methoxy-6-(3-(1-methyl-H-pyrazol-3-yl)phenyl)-2-morpholino pyrimidine-4-carboxamide] | 1 to 10 | 0.01 to 0.1
4 | COc1c(Nc2ccncc2)nc(N2CCOCC2)nc1-c1cncc(-c2ccn(C)n2)c1 [Compound 7, 5-methoxy-6-(5-(1-methyl-1H-pyrazol-3-yl)pyridin-3-yl)-2-morpholino-N-(pyridin-4-yl)pyrimidin-4-amine] | 0.01 to 0.1 | < 0.01
5 | COc1c(Nc2ccncc2)nc(N2CCOCC2)nc1-c1cccc(-n2cccn2)c1 [Compound 8, 6-(3-(1H-pyrazol-1-yl)phenyl)-5-methoxy-2-morpholino-N-(pyridin-4-yl)pyrimidin-4-amine] | 0.1 to 1 | < 0.01
6 | COc1c(Nc2ccncc2)nc(N2CCOCC2)nc1-c1cccc(-c2cccnn2)c1 [Compound 10, 5-methoxy-2-morpholino-6-(3-(pyridazin-3-yl)phenyl)-N-(pyridin-4-yl)pyrimidin-4-amine] | 0.1 to 1 | 0.01 to 0.1
7 | COc1c(Nc2ccncc2)nc(N2CCOCC2)nc1-c1cccc(C(=O)N(C)C)c1 [Compound 11, 3-(5-methoxy-2-morpholino-6-(pyridin-4-ylamino)pyrimidin-4-yl)-N,N-dimethylbenzamide] | 1 to 10 | 0.01 to 0.1
8 | COc1cc(-c2nc(N3CCOCC3)nc(Nc3ccncc3)c2OC)cnc1OC [Compound 12, 6-(5,6-dimethoxypyridin-3-yl)-5-methoxy-2-morpholino-N-(pyridin-4-yl)pyrimidin-4-amine] | 0.1 to 1 | < 0.01
9 | COc1ccc(-c2nc(N3CCOCC3)nc(Nc3ccncc3)c2OC)cc1OC [Compound 13, 6-(3,4-dimethoxyphenyl)-5-methoxy-2-morpholino-N-(pyridin-4-yl)pyrimidin-4-amine] | 0.1 to 1 | < 0.01
10 | COc1c(Nc2ccncc2)nc(N2CCOCC2)nc1-c1ccnc(-c2ccn(C)n2)c1 [Compound 14, 5-methoxy-6-(2-(1-methyl-H-pyrazol-3-yl)pyridin-4-yl)-2-morpholino-N-(pyridin-4-yl)pyrimidin-4-amine] | 0.01 to 0.1 | < 0.01
11 | COc1c(Nc2ccncc2)nc(N2CCOCC2)nc1-c1cccc(N2CCN(C)C(=O)C2)c1 [Compound 15, 4-(3-(5-methoxy-2-morpholino-6-(pyridin-4-ylamino)pyrimidin-4-yl)phenyl)-1-methylpiperazin-2-one] | 0.1 to 1 | 0.01 to 0.1
12 | COc1c(Nc2ccncc2)nc(N2CCOCC2)nc1-c1cccc(-c2ncccn2)c1 [Compound 16, 5-methoxy-2-morpholino-N-(pyridin-4-yl)-6-(3-(pyrimidin-2-yl)phenyl)pyrimidin-4-amine] | 0.01 to 0.1 | < 0.01
13 | COc1c(Nc2ccc(C)cc2)nc(N2CCOCC2)nc1-c1cc(-c2ccn(C)n2)cnn1 [Compound 17, 5-methoxy-6-(5-(1-methyl-1H-pyrazol-3-yl)pyridazin-3-yl)-2-morpholino-N-(p-tolyl)pyrimidin-4-amine] | 0.01 to 0.1 | < 0.01
14 | COc1c(Nc2cccnc2)nc(N2CCOCC2)nc1-c1cncc(-c2ccn(C)n2)c1 [Compound 19, 5-methoxy-6-(5-(1-methyl-1H-pyrazol-3-yl)pyridin-3-yl)-2-morpholino-N-(pyridin-3-yl)pyrimidin-4-amine] | 0.1 to 1 | 0.01 to 0.1
15 | COc1c(-c2ccncc2)nc(N2CCOCC2)nc1-c1cccc(-c2ccn(C)n2)c1 [Compound 30, 4-(5-methoxy-4-(3-(1-methyl-1H-pyrazol-3-yl)phenyl)-6-(pyridin-4-yl)pyrimidin-2-yl)morpholine] | 1 to 10 | 0.01 to 0.1
16 | COc1c(-c2cccc(-c3ccn(C)n3)c2)nc(N2CCOCC2)nc1C(O)c1ccncc1 (stereo not shown) [Compound 32] | 1 to 10 | 0.1 to 1
17 | CN(C)C(=O)c1c(Nc2ccncc2)nc(N2CCOCC2)nc1-c1cccc(-n2cccn2)c1 [Compound 33] | 0.1 to 1 | 0.01 to 0.1
18 | Cn1ccc(-c2cc3c(cn2)COc2c(Nc4ccncc4)nc(N4CCOCC4)nc2-3)n1 [Compound 38, 9-(1-methyl-1H-pyrazol-3-yl)-2-morpholino-N-(pyridin-4-yl)-6H-pyrido[4′,3′:4,5]pyrano[3,2-d]pyrimidin-4-amine] | 0.1 to 1 | 0.01 to 0.1
19 | COc1c(Nc2ccncc2)nc(-c2ccncc2)nc1-c1ccnc(-c2ccn(C)n2)c1 [Compound 39, 5-methoxy-6-(2-(1-methyl-1H-pyrazol-3-yl)pyridin-4-yl)-N, 2-di(pyridin-4-yl)pyrimidin-4-amine] | 0.01 to 0.1 | < 0.01
20 | Cn1ccc(-c2cnc3c(c2)-c2nc(N4CCOCC4)nc(Nc4ccncc4)c2OC3)n1 [Compound 40, 9-(1-methyl-1H-pyrazol-3-yl)-2-morpholino-N-(pyridin-4-yl)-6H-pyrido[3′,2′:4,5] pyrano[3,2-d]pyrimidin-4-amine] | 0.01 to 0.1 | 0.01 to 0.1
21 | COc1c(Nc2ccncc2)nc(N2CCOCC2)nc1-c1cccc(-c2nn(C)cc2C)c1 [Compound 41] | 0.1 to 1 | 0.01 to 0.1
22 | COc1c(Nc2ccncc2)nc(N2CCCC2=O)nc1-c1cccc(-c2ccn(C)n2)c1 [Compound 44, 1-(5-methoxy-4-(3-(1-methyl-1H-pyrazol-3-yl)phenyl)-6-(pyridin-4-ylamino)pyrimidin-2-yl)pyrrolidin-2-one] | > 10 | 1 to 10
23 | COc1c(Nc2ccncc2)nc(N2CCC(O)CC2)nc1-c1cccc(-c2ccn(C)n2)c1 [Compound 46, 1-(5-methoxy-4-(3-(1-methyl-1H-pyrazol-3-yl)phenyl)-6-(pyridin-4-ylamino)pyrimidin-2-yl)piperidin-4-ol] | > 10 | 0.1 to 1
24 | COc1cn(C)nc1-c1cccc(-c2nc(N3CCOCC3)nc(Nc3ccncc3)c2OC)c1 [Compound 47, 5-methoxy-6-(3-(4-methoxy-1-methyl-1H-pyrazol-3-yl)phenyl)-2-morpholino-N-(pyridin-4-yl)pyrimidin-4-amine] | 0.1 to 1 | 0.01 to 0.1
25 | Cn1ccc(-c2ccc3c(c2)-c2nc(N4CCOCC4)nc(Nc4ccncc4)c2OC3)n1 [Compound 49, 9-(1-methyl-1H-pyrazol-3-yl)-2-morpholino-N-(pyridin-4-yl)-6H-isochromeno[4,3-d]pyrimidin-4-amine] | 0.1 to 1 | 0.01 to 0.1
26 | COc1c(Nc2ccncc2)nc(N2CCOCC2)nc1-c1cncc(-c2cccnn2)c1 [Compound 57] | 0.1 to 1 | < 0.01
27 | COc1c(NCc2cccnc2)nc(-c2ccncc2)nc1-c1cccc(-c2ccn(C)n2)c1 [Compound 62, 5-methoxy-6-(3-(1-methyl-1H-pyrazol-3-yl)phenyl)-N-(pyridin-3-ylmethyl)-2-(pyridin-4-yl)pyrimidin-4-amine] | 0.1 to 1 | < 0.01
28 | Cn1c(=O)c2c(Nc3ccncc3)nc(N3CCOCC3)nc2c2cc(-n3cccn3)ccc21 [Compound 65, 6-methyl-2-morpholino-9-pyrazol-1-yl-4-(4-pyridylamino)pyrimido[5,4-c]quinolin-5-one] | 1 to 10 | 0.01 to 0.1
29 | Cn1ccc(-c2cccc(-c3nc(N4CCOCC4)nc(Nc4ccncc4)c3-c3ncco3)c2)n1 [Compound 74, 6-[3-(1-methylpyrazol-3-yl)phenyl]-2-morpholino-5-oxazol-2-yl-N-(4-pyridyl)pyrimidin-4-amine] | 0.1 to 1 | 0.01 to 0.1
